Source: US9770026B2, “Substituted pyrimidine compound and uses thereof” (Shenyang Sinochem Agrochemicals R&D Co., Ltd., priority 2012, dated 2017)

Tests used:
[1] = test system: Diamond back moth; assay: insecticidal activity against diamond back moth, airbrush spray; type: in vivo; conditions: for pest or weed control at 600 µg/mL: 600 mg/L; for control (test results against diamond back moth): 600 ppm, mortality after 72 hrs
Experimental: (§1) Compounds were dissolved in mixed solvent (acetone:methanol=1:1), and diluted to required concentration with water containing 0.1% of tween 80.
(§2) Diamond back moth, armyworm, peach aphid and carmine spider mite were used as targets and the method of spraying by airbrush was used for determination of insecticidal biassays.
The method of spraying by airbrush: The cabbage leaves were made into plates of 2 cm diameter by use of punch. A test solution (0.5 ml) was sprayed by airbrush at the pressure of 0.7 kg/cm^2 to both sides of every plate. 10 Second instar larvae were put into the petri-dishes after the leaf disc air-dried and 3 replicates were set for each treatment. Then the insects were maintained in observation room (25° C., 60˜70% R.H.). Scores were conducted and mortalities were calculated after 72 hrs.

[2] = test system: Green peach aphids (Myzus Persicae Sulzer); assay: bioactivity test against green peach aphid, airbrush foliar spray; type: in vivo; conditions: for control (test results against green peach aphid): death rate after 48 hrs
Summary of the method: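 Aphids (15-30 per cabbage leaf disc) on moist filter paper were airbrush-sprayed at 10 psi, 0.5 mL, with compound from acetone:methanol (1:1) diluted in water with 0.1% tween 80. Held at 25±1 C, 60±5% RH; survivors counted after 48 hrs to give death rates.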

[3] = test system: carmine spider mite; assay: bioactivity test against carmine spider mite, airbrush spray; type: in vivo; conditions: for control against carmine spider mite: mortality after 72 hrs
Experimental: as §1, §2
The method: Broadbean shoots with two true leaves in pot were taken, the healthy adults of carmine spider mite were inoculated to the leaves. The adults were counted and then sprayed with airbrush at the pressure of 0.7 kg/cm^2 and at dose of 0.5 ml. 3 replicates were set for each treatment. And then they were maintained in standard observation room. Scores were conducted and mortalities were calculated after 72 hrs.

[4] = test system: corn rust; assay: protectant activity in vivo against corn rust; conditions: for pest or weed control at 400 µg/mL: read-out: control effect against corn rust (%), 400 mg/L
[5] = test system: wheat powdery mildew; assay: protectant activity in vivo against wheat powdery mildew; conditions: for pest or weed control at 400 µg/mL: read-out: control effect against wheat powdery mildew (%), 400 mg/L
[6] = test system: cucumber downy mildew; assay: protectant activity in vivo against cucumber downy mildew; conditions: for pest or weed control at 400 µg/mL: read-out: control effect against cucumber downy mildew (%), 400 mg/L
[7] = test system: armyworm; assay: bioactivity test against armyworm, airbrush spray; type: in vivo; conditions: for control (test results against armyworm): 600 ppm, mortality after 72 h
Experimental: as §1, §2
The method of spraying by airbrush: The corn leaves were made into plates of 2 cm diameter by use of punch. A test solution (0.5 ml) was sprayed by airbrush at the pressure of 0.7 kg/cm^2 to both sides of every plate. 10 Second instar larvae were put into the petri-dishes after the leaf disc air-dried and 3 replicates were set for each treatment. Then the insects were maintained in observation room (25 °C, 60˜70% R.H.). Scores were conducted and mortalities were calculated after 72 h.

[8] = Zea mays, 168 h, protectant activity
[9] = Triticum aestivum, 168 h, protectant activity
[10] = Cucumis sativus, 168 h, protectant activity

FC(F)(F)c1ccc(Oc2ccc(CCNc3cc(Cl)ncn3)cc2)nc1 [CK69, reference compound]
98%: pest or weed control at 50 µg/mL ([6]; Cucumis sativus, 168 h, read-out: control effect against cucumber downy mildew (%), 50 mg/L, protectant activity)
50%: pest or weed control at 25 µg/mL ([4]; Zea mays, 168 h, read-out: control effect against corn rust (%), 25 mg/L, protectant activity) | pest or weed control at 25 µg/mL ([6]; Cucumis sativus, 168 h, read-out: control effect against cucumber downy mildew (%), 25 mg/L, protectant activity)
70%: pest or weed control at 10 µg/mL ([2]; Myzus persicae, foliar, 48 h, 10 mg/L, contrastive test, read-out: Insecticidal activity against peach aphid (%))
4%: pest or weed control at 10 µg/mL ([3]; Tetranychus cinnabarinus, 72 h, 10 mg/L, contrastive test, read-out: Insecticidal activity against carmine spider mite (% ))
100%: pest or weed control at 600 µg/mL ([1]; 72 h) | pest or weed control at 100 µg/mL ([2]; Myzus persicae, foliar, 48 h, 100 mg/L, contrastive test, read-out: Insecticidal activity against peach aphid (%)) | pest or weed control at 600 µg/mL ([2]; Myzus persicae, foliar, 48 h, 600 mg/L, contrastive test, read-out: Insecticidal activity against peach aphid (%)) | pest or weed control at 100 µg/mL ([3]; Tetranychus cinnabarinus, 72 h, 100 mg/L, contrastive test, read-out: Insecticidal activity against carmine spider mite (% )) | pest or weed control at 600 µg/mL ([3]; Tetranychus cinnabarinus, 72 h, 600 mg/L, contrastive test, read-out: Insecticidal activity against carmine spider mite (% )) | pest or weed control at 400 µg/mL [4, 8] | pest or weed control at 400 µg/mL [5, 9] | pest or weed control at 100 µg/mL ([6]; Cucumis sativus, 168 h, read-out: control effect against cucumber downy mildew (%), 100 mg/L, protectant activity) | pest or weed control at 400 µg/mL [6, 10]
90%: pest or weed control at 100 µg/mL ([4]; Zea mays, 168 h, read-out: control effect against corn rust (%), 100 mg/L, protectant activity)
5%: pest or weed control at 100 µg/mL ([1]; 72 h, 100 mg/L)
0%: pest or weed control at 10 µg/mL ([1]; 72 h, 10 mg/L) | pest or weed control at 6.25 µg/mL ([4]; Zea mays, 168 h, read-out: control effect against corn rust (%), 6.25 mg/L, protectant activity) | pest or weed control at 6.25 µg/mL ([5]; Triticum aestivum, 168 h, read-out: control effect against wheat powdery mildew (%), 6.25 mg/L, protectant activity) | pest or weed control at 25 µg/mL ([5]; Triticum aestivum, 168 h, read-out: control effect against wheat powdery mildew (%), 25 mg/L, protectant activity) | pest or weed control at 100 µg/mL ([5]; Triticum aestivum, 168 h, read-out: control effect against wheat powdery mildew (%), 100 mg/L, protectant activity)

Cc1cc(Cl)ccc1Oc1ccc(CCNc2ncnc(C)c2Cl)cn1 [III-110]
100%: control (test results against diamond back moth) [1] | control (test results against green peach aphid) ([2]; 100 ppm) | control (test results against green peach aphid) ([2]; 600 ppm) | control against carmine spider mite ([3]; 600 ppm) | protectant activity against corn rust in vivo ([4]; 100 ppm) | protectant activity against corn rust in vivo ([4]; 400 ppm) | protectant activity against wheat powdery mildew in vivo ([5]; 400 ppm) | control effect against cucumber downy mildew (%) ([6]; 25 mg/L, protectant activity) | control effect against cucumber downy mildew (%) ([6]; 50 mg/L, protectant activity) | control effect against cucumber downy mildew (%) ([6]; 100 mg/L, protectant activity) | control effect against cucumber downy mildew (%) ([6]; 400 mg/L, protectant activity) | protectant activity against cucumber downy mildew in vivo ([6]; 25 ppm) | protectant activity against cucumber downy mildew in vivo ([6]; 50 ppm) | protectant activity against cucumber downy mildew in vivo ([6]; 100 ppm) | protectant activity against cucumber downy mildew in vivo ([6]; 400 ppm)

Cc1ncnc(NCCc2ccc(Oc3ccc(Cl)nn3)cc2)c1Br [Compound I-4121]
100%: control (test results against diamond back moth) [1] | control (test results against armyworm) [7] | control (test results against green peach aphid) ([2]; 10 ppm) | control (test results against green peach aphid) ([2]; 100 ppm) | control (test results against green peach aphid) ([2]; 600 ppm) | protectant activity against corn rust in vivo ([4]; 400 ppm) | protectant activity against wheat powdery mildew in vivo ([5]; 400 ppm)

Cc1ncnc(NCCc2ccc(Oc3ccc(C(F)(F)F)cc3Cl)cc2)c1Cl [II-154]
50%: control effect against corn rust (%) ([4]; 1.6 mg/L, protectant activity)
100%: control (test results against diamond back moth) [1] | control (test results against green peach aphid) ([2]; 100 ppm) | control (test results against green peach aphid) ([2]; 600 ppm) | control against carmine spider mite ([3]; 100 ppm) | control against carmine spider mite ([3]; 600 ppm) | control effect against corn rust (%) ([4]; 6.25 mg/L, protectant activity) | control effect against corn rust (%) ([4]; 25 mg/L, protectant activity) | control effect against corn rust (%) ([4]; 100 mg/L, protectant activity) | control effect against corn rust (%) ([4]; 400 mg/L, protectant activity) | protectant activity against corn rust in vivo ([4]; 6.25 ppm) | protectant activity against corn rust in vivo ([4]; 25 ppm) | protectant activity against corn rust in vivo ([4]; 100 ppm) | protectant activity against corn rust in vivo ([4]; 400 ppm) | protectant activity against wheat powdery mildew in vivo ([5]; 100 ppm) | protectant activity against wheat powdery mildew in vivo ([5]; 400 ppm) | protectant activity against cucumber downy mildew in vivo ([6]; 400 ppm)

Cc1ncnc(NCCc2ccc(Oc3cccc(Cl)c3)nc2)c1Cl [III-6]
100%: control (test results against diamond back moth) [1] | control (test results against armyworm) [7] | control (test results against green peach aphid) ([2]; 600 ppm) | protectant activity against corn rust in vivo ([4]; 100 ppm) | protectant activity against corn rust in vivo ([4]; 400 ppm) | protectant activity against wheat powdery mildew in vivo ([5]; 400 ppm)

COc1cc(NCCc2ccc(Oc3ncc(C(F)(F)F)cc3Cl)cc2)ncn1 [CK71, reference compound]
0%: pest or weed control at 600 µg/mL ([1]; 72 h) | pest or weed control at 400 µg/mL [4, 8]
86%: pest or weed control at 600 µg/mL ([7]; 72 h, 600 mg/L, read-out: Insecticidal activity against armyworm (%))
80%: pest or weed control at 400 µg/mL [6, 10]
100%: pest or weed control at 400 µg/mL [5, 9]

COc1cc(CCNc2ncnc(C)c2Cl)ccc1Oc1ccc(Cl)cc1 [II-1687]
100%: control (test results against diamond back moth) [1] | Insecticidal activity against peach aphid (%) ([2]; 10 mg/L, contrastive test) | Insecticidal activity against peach aphid (%) ([2]; 100 mg/L, contrastive test) | Insecticidal activity against peach aphid (%) ([2]; 600 mg/L, contrastive test) | control (test results against green peach aphid) ([2]; 10 ppm) | control (test results against green peach aphid) ([2]; 100 ppm) | control (test results against green peach aphid) ([2]; 600 ppm) | control against carmine spider mite ([3]; 600 ppm) | protectant activity against corn rust in vivo ([4]; 100 ppm) | protectant activity against corn rust in vivo ([4]; 400 ppm) | protectant activity against wheat powdery mildew in vivo ([5]; 25 ppm) | protectant activity against wheat powdery mildew in vivo ([5]; 100 ppm) | protectant activity against wheat powdery mildew in vivo ([5]; 400 ppm) | protectant activity against cucumber downy mildew in vivo ([6]; 50 ppm) | protectant activity against cucumber downy mildew in vivo ([6]; 100 ppm) | protectant activity against cucumber downy mildew in vivo ([6]; 400 ppm)

CCc1ncnc(NCCc2ccc(Oc3ccccc3Cl)nc2)c1Cl [III-185]
100%: control (test results against diamond back moth) [1] | control (test results against green peach aphid) ([2]; 100 ppm) | control (test results against green peach aphid) ([2]; 600 ppm) | control against carmine spider mite ([3]; 600 ppm) | protectant activity against corn rust in vivo ([4]; 400 ppm) | protectant activity against wheat powdery mildew in vivo ([5]; 400 ppm)

Cc1nc(Cl)c(Cl)c(NCCc2ccc(Oc3ccc(Cl)cc3)nc2)n1 [III-2527]
75%: control effect against cucumber downy mildew (%) ([6]; 6.25 mg/L, protectant activity)
100%: control (test results against diamond back moth) [1] | control (test results against armyworm) [7] | control (test results against green peach aphid) ([2]; 600 ppm) | control effect against cucumber downy mildew (%) ([6]; 12.5 mg/L, protectant activity) | control effect against cucumber downy mildew (%) ([6]; 25 mg/L, protectant activity) | control effect against cucumber downy mildew (%) ([6]; 50 mg/L, protectant activity) | control effect against cucumber downy mildew (%) ([6]; 100 mg/L, protectant activity) | control effect against cucumber downy mildew (%) ([6]; 400 mg/L, protectant activity) | protectant activity against cucumber downy mildew in vivo ([6]; 12.5 ppm) | protectant activity against cucumber downy mildew in vivo ([6]; 25 ppm) | protectant activity against cucumber downy mildew in vivo ([6]; 50 ppm) | protectant activity against cucumber downy mildew in vivo ([6]; 100 ppm) | protectant activity against cucumber downy mildew in vivo ([6]; 400 ppm)
